ChEMBL document CHEMBL3792289, “Design, synthesis and biological evaluation of bisabolangelone oxime derivatives as potassium-competitive acid blockers (P-CABs)” (Bioorg Med Chem Lett, 2016)

test: Inhibition of gastric H+/K+-ATPase in Kunming mouse stomach parietal cells; type: tissue-based

**Q.** For `CC(C)C/C=C1\O[C@H]2C[C@@H](C)CC(=O)[C@H]2[C@@]1(C)O`, which IC50 is on record?
**A.** 23.2 µM

test: Inhibition of pig gastric H+/K+-ATPase in stomach ion leaky membrane vesicle assessed as reduction in monophosphate production after 30 mins by microplate reader analysis in presence of valinomycin; type: cell membranes, Sus scrofa

**Q.** With `CC(C)C/C=C1\O[C@H]2C[C@@H](C)C/C(=N\OC(=O)Nc3ccccc3)[C@H]2[C@@]1(C)O` as the compound, how does the pIC50 read?
**A.** 6

**Q.** Which pIC50 does the source give for `C#CCO/N=C1\C[C@H](C)C[C@@H]2O/C(=C\CC(C)C)[C@](C)(O)[C@H]12` here?
**A.** 6.36

**Q.** For `CCOC(=O)CO/N=C1\C[C@H](C)C[C@@H]2O/C(=C\CC(C)C)[C@](C)(O)[C@H]12`, which pIC50 is on record?
**A.** 6.07

**Q.** Which IC50 does the source give for `Cc1nc(Nc2ccc(F)cc2)nc(N2CCc3ccccc3C2C)c1C` (centres undefined) [REVAPRAZAN] here?
**A.** 0.95 µM

**Q.** For `CC(C)CCC1O[C@H]2C[C@@H](C)C/C(=N\O)[C@H]2[C@@]1(C)O` (some centres undefined), which pIC50 is on record?
**A.** 5.3

**Q.** For `CC(C)C/C=C1\O[C@H]2C[C@@H](C)C/C(=N\OCc3ccccc3)[C@H]2[C@@]1(C)O`, which pIC50 is on record?
**A.** 6.25

**Q.** Which pIC50 does the source give for `CCCCO/N=C1\C[C@H](C)C[C@@H]2O/C(=C\CC(C)C)[C@](C)(O)[C@H]12` here?
**A.** 5.94

**Q.** Which pIC50 does the source give for `CC(C)C/C=C1\O[C@H]2C[C@@H](C)C/C(=N\O)[C@H]2[C@@]1(C)O` here?
**A.** 5.54
